In ChEMBL document CHEMBL5376007, “Discovery of Novel PD-L1 Inhibitors That Induce the Dimerization, Internalization, and Degradation of PD-L1 Based on the Fragment Coupling Strategy” (J Med Chem, 2023):
Active and inactive are the calls of the source. The calls are words filed in the database; no cut-off is given here.

What was measured:
[1] = target: Programmed cell death protein 1/Programmed cell death 1 ligand 1 (Homo sapiens, UniProt Q9NZQ7); assay: Inhibition of interaction of Fc(IgG1)-Avi)-(Biotin)-fused human PDL1 (19 to 239 residues)/Eu-labeled human PD-1 (25 to 167 residues) expressed in HEK293 cells pretreated with PDL1 for 15 mins followed by PD-1 addition and measured after 90 mins by TR-FRET assay; assay type: cell-based
Sequence of Programmed cell death protein 1/Programmed cell death 1 ligand 1 (Q15116 whole entry, the tested form may be a part): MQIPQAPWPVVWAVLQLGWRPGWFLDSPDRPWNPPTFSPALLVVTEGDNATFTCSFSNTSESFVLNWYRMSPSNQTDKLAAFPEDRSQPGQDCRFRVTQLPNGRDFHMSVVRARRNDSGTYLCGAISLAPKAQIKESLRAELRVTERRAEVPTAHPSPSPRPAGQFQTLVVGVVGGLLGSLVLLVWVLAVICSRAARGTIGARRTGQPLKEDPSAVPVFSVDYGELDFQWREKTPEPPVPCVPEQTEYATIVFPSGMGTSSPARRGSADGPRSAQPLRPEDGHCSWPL
Sequence of Programmed cell death protein 1/Programmed cell death 1 ligand 1 (Q9NZQ7 whole entry, the tested form may be a part): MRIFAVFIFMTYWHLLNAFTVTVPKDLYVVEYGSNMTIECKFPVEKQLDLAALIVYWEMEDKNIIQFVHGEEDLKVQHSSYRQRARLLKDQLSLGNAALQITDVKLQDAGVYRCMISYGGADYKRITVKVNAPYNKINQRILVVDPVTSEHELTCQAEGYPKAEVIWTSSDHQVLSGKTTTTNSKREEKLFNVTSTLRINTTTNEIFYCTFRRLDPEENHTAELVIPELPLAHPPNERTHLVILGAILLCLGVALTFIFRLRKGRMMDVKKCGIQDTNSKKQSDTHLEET

[2] = target: T1, Programmed cell death 1 ligand 1 (Homo sapiens, UniProt Q9NZQ7); assay: Inhibition of human recombinant PDL1 expressed in HEK293 cells assessed as restoration of Jurkat T cell activity by measuring increase in IFNgamma secretion at 1 uM incubated for 24 hrs by ELISA; assay type: cell-based; design: Activity: scale not given: the % may be the effect or the level left
T1 sequence (Q9NZQ7 whole entry): as the sequence (Q9NZQ7 whole entry, the tested form may be a part) above

[3] = system: CT26; assay: Antitumor activity against mouse CT26 cells xenografted in BALB/c mouse assessed as inhibition of tumor growth administered ip qd for 2 weeks; assay type: functional, organism-based; details: dose 10-20 mg/kg
[4] = AUC(0 to t) in Sprague-Dawley rat at 5 mg/kg, iv by LC-MS/MS analysis; assay type: ADME, organism-based; design: dose 5 mg/kg, route iv; details: in vivo
[5] = target: Programmed cell death 1 ligand 1 (Mus musculus, UniProt Q9EP73); assay: Binding affinity to RED-NHS dye labeled mouse PDL1 incubated for 10 mins away from light by microscale thermophoresis analysis
Sequence of Programmed cell death 1 ligand 1 (Mus musculus, UniProt Q9EP73) (Q9EP73 whole entry): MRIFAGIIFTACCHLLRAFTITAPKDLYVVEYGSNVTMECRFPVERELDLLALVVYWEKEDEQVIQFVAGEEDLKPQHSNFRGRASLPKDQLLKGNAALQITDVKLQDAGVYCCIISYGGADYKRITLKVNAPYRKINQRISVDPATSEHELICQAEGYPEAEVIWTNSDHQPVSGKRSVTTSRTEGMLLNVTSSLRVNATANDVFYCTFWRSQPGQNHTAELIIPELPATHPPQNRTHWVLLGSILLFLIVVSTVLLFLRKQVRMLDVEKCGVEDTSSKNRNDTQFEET

[6] = target: T1, Programmed cell death 1 ligand 1; assay: Inhibition of PDL1 in human RKO cells assessed as […] PDL1 internalization into cytosol at 2 uM by immunofluorescence assay; assay type: subcellular; details: time 2-6 hrs, TDE = time-dependent effect
[7] = Toxicity against BALB/c mouse xenografted with mouse CT26 cells assessed as mortality at 10 to 20 mg/kg, ip qd for 2 weeks; assay type: organism-based; details: in vivo, 336 h, dose 10-20 mg/kg
[8] = Tmax in Sprague-Dawley rat at 5 mg/kg, iv by LC-MS/MS analysis; assay type: ADME, organism-based; details: in vivo
[9] = target: T1, Programmed cell death 1 ligand 1; assay: Inhibition of human recombinant PDL1 expressed in HEK293 cells assessed as restoration of Jurkat T cell activity by measuring increase in IL-2 secretion incubated for 24 hrs by ELISA; assay type: cell-based; details: dose 0.3125-2.5 µM
[10] = Half life in Sprague-Dawley rat at 25 mg/kg, po by LC-MS/MS analysis; assay type: ADME, organism-based; details: in vivo
[11] = Oral bioavailability in Sprague-Dawley rat at 25 mg/kg by LC-MS/MS analysis; assay type: ADME, organism-based; details: in vivo
[12] = Cmax in Sprague-Dawley rat at 25 mg/kg, po by LC-MS/MS analysis; assay type: ADME, organism-based; design: dose 25 mg/kg, route po; details: in vivo
[13] = Toxicity against BALB/c mouse xenografted with mouse CT26 cells assessed as body weight loss at 10 to 20 mg/kg, ip qd for 2 weeks; assay type: organism-based; details: in vivo, 336 h, dose 10-20 mg/kg
[14] = target: T1, Programmed cell death 1 ligand 1; assay: Binding affinity to RED-NHS dye labeled human PDL1 incubated for 10 mins away from light by microscale thermophoresis analysis
[15] = Half life in Sprague-Dawley rat at 5 mg/kg, iv by LC-MS/MS analysis; assay type: ADME, organism-based; details: in vivo
[16] = target: T1, Programmed cell death 1 ligand 1; assay: Inhibition of human recombinant PDL1 expressed in HEK293 cells assessed as restoration of Jurkat T cell activity by measuring increase in IL-2 secretion at 2.5 uM incubated for 24 hrs in presence of PD-L1v242 by ELISA; assay type: cell-based
[17] = system: L02; assay: Cytotoxicity against human L02 cells assessed as cell viability at 0.625 to 10 uM incubated for 24 hrs by CCK8 assay; assay type: toxicity, cell-based; details: l02, 24 h, dose 0.625-10 µM
[18] = system: CT26; assay: Antitumor activity against mouse CT26 cells xenografted in BALB/c mouse assessed as decrease in tumor weight at 20 mg/kg, ip qd for 2 weeks; assay type: functional; details: CT26, 336 h
[19] = system: CT26; assay: Antitumor immunity against mouse CT26 cells xenografted in BALB/c mouse assessed as increase in infiltration of CD8+ cells in tumor administered ip qd for 2 weeks by immunohistochemical staining based analysis; assay type: functional, organism-based; details: dose 10-20 mg/kg
[20] = system: CT26; assay: Antitumor activity against mouse CT26 cells xenografted in BALB/c mouse assessed as decrease in tumor weight at 10 mg/kg, ip qd for 2 weeks; assay type: functional; details: CT26, 336 h
[21] = system: NCM460; assay: Cytotoxicity against human NCM460 cells assessed as cell viability at 0.625 to 10 uM incubated for 24 hrs by CCK8 assay; assay type: toxicity, cell-based; details: ncm460, 24 h, dose 0.625-10 µM
[22] = Cmax in Sprague-Dawley rat at 5 mg/kg, iv by LC-MS/MS analysis; assay type: ADME, organism-based; design: dose 5 mg/kg, route iv; details: in vivo
[23] = Tmax in Sprague-Dawley rat at 25 mg/kg, po by LC-MS/MS analysis; assay type: ADME, organism-based; details: in vivo
[24] = system: MDA-MB-231; assay: Antitumor activity against human MDA-MB-231 cells cocultured with CD3/CD28/CD2 T cell activator stimulated human PBMC cells assessed as increase in tumor cell viability incubated for 12 hrs by LDH assay; details: MDA-MB-231, 12 h
[25] = target: T1, Programmed cell death 1 ligand 1; assay: Inhibition of PDL1 in human RKO cells assessed as […] PDL1 internalization into cytosol incubated for 12 hrs by immunofluorescence assay; assay type: subcellular; details: dose 0.5-2 µM
[26] = target: T1, Programmed cell death 1 ligand 1; assay: Inhibition of PDL1 in human MDA-MB-231 cells assessed as induction of PDL1 degradation at 1 to 5 uM incubated for 24 hrs by western blot analysis; assay type: cell-based; details: dose 1-5 µM
[27] = system: CT26; assay: In vivo inhibition of PDL1 in BALB/c mouse xenografted with mouse CT26 cells assessed as induction of PDL1 degradation by measuring decrease in PDL1 protein expression in tumor at 10 to 20 mg/kg, ip qd for 2 weeks by immunohistochemical staining based analysis; assay type: functional, organism-based; details: dose 10-20 mg/kg
[28] = system: CT26; assay: Antitumor activity against mouse CT26 cells xenografted in BALB/c mouse assessed as tumor shrinkage and reduction of tumor growth at 20 mg/kg, ip qd for 2 weeks by Hematoxylin-eosin staining based analysis; assay type: functional, organism-based
[29] = target: T1, Programmed cell death 1 ligand 1; assay: Inhibition of PDL1 (unknown origin) assessed as induction of PDL1 dimerization at protein to compound concentration ratio of 1:2 incubated for overnight by SEC analysis
[30] = AUC(0 to t) in Sprague-Dawley rat at 25 mg/kg, po by LC-MS/MS analysis; assay type: ADME, organism-based; design: dose 25 mg/kg, route po; details: in vivo
[31] = system: CT26; assay: Antitumor immunity against mouse CT26 cells xenografted in BALB/c mouse assessed as increase in infiltration of CD8+ cells in tumor at 20 mg/kg, ip qd for 2 weeks by immunohistochemical staining based analysis; assay type: functional, organism-based
[32] = system: CT26; assay: Antitumor activity against mouse CT26 cells xenografted in BALB/c mouse assessed as inhibition of tumor growth at 20 mg/kg, ip qd for 2 weeks; assay type: functional, organism-based
[33] = system: CT26; assay: In vivo inhibition of PDL1 in BALB/c mouse xenografted with mouse CT26 cells assessed as induction of PDL1 degradation by measuring decrease in PDL1 protein expression in tumor at 20 mg/kg, ip qd for 2 weeks by immunohistochemical staining based analysis; assay type: functional, organism-based

COc1nc(O[C@H]2CCc3c(-c4cccc(C(=O)Nc5ccc(CNCCNC(C)=O)c(C(F)(F)F)n5)c4Cl)cccc32)c(Cl)cc1CNCCNC(C)=O
IC50 [1]: 18.8 nM

Cc1c(-c2nnc(Nc3cccc(CN4CC[C@@H](O)C4)c3)o2)cccc1-c1cccc(-c2nnc(Nc3cccc(CN4CC[C@@H](O)C4)c3)o2)c1C
inhibition [2]: Active | IC50 [1]: 30.9 nM

COc1nc(O[C@H]2CCc3c(-c4cccc(C(=O)Nc5ccc(CN6CC(O)C6)cn5)c4Cl)cccc32)c(Cl)cc1CN1CC(O)C1
IC50 [1]: 6.3 nM

CC(=O)NCCNCc1cccc(Nc2nnc(-c3cccc(-c4cccc(-c5nnc(Nc6cccc(CNCCO)c6)o5)c4C)c3C)o2)c1
IC50 [1]: 38 nM

COc1nc(-c2cccc(-c3cccc(-c4nnc(Nc5cccc(CNCCO)c5)o4)c3C)c2C)ccc1CNCCNC(C)=O
Activity [2]: 66% | IC50 [1]: 23.5 nM

COc1nc(O[C@H]2CCc3c(-c4cccc(C(=O)Nc5ccc(CNCCNC(C)=O)cn5)c4Cl)cccc32)c(Cl)cc1CNCCNC(C)=O
inhibition [2]: Active | IC50 [1]: 4.1 nM

COc1nc(O[C@H]2CCc3c(-c4cccc(C(=O)Nc5ccc(CNC[C@@H]6CCC(=O)N6)cn5)c4Cl)cccc32)c(Cl)cc1CNC[C@@H]1CCC(=O)N1
Activity [3]: Dose-Dependent Effect | AUC(0-t) [4]: 890 ng·h/mL | Kd [5]: 790 nM | inhibition [6]: Tde | Activity [7]: Non-Toxic | Tmax [8]: 1.8 min | inhibition [9]: Dose-Dependent Effect | half-life [10]: 5.8 h | bioavailability [11]: 1.6% | Cmax [12]: 22.6 ng/mL | Activity [2]: 80% | Activity [13]: Non-Toxic | Kd [14]: 24 nM | half-life [15]: 5.3 h | inhibition [16]: Active | Activity [17]: Non-Toxic | inhibition in vivo at 20 mg/kg [18]: 51% | Activity [19]: Dose-Dependent Effect | inhibition in vivo at 10 mg/kg [20]: 37% | Activity [21]: Non-Toxic | Cmax [22]: 2370 ng/mL | IC50 [1]: 1.8 nM | Tmax [23]: 0.3 h | EC50 [24]: ~800 nM | inhibition [25]: Dose-Dependent Effect | inhibition [26]: Active | inhibition [27]: Active | Activity [28]: Active | inhibition [29]: Active | AUC(0-t) [30]: 73.1 ng·h/mL

Cc1c(-c2nnc(Nc3cccc(CNCCO)c3)o2)cccc1-c1cccc(C(=O)Nc2ccc(CNCCO)cn2)c1Cl
IC50 [1]: 8.2 nM

Cc1c(C(=O)Nc2ccc(CNCCO)cn2)cccc1-c1cccc(-c2nnc(Nc3cccc(CNCCO)c3)o2)c1C
IC50 [1]: 14.5 nM

COc1nc(-c2cccc(-c3cccc(-c4nnc(Nc5cccc(CNCCO)c5)o4)c3C)c2C)ccc1CNCCO
inhibition [2]: Active | IC50 [1]: 13.9 nM

COc1nc(NC(=O)c2cccc(-c3cccc4c3CC[C@@H]4Oc3nc(OC)c(CNCCO)cc3Cl)c2Cl)ccc1CNCCO
IC50 [1]: 18.2 nM

Cc1c(-c2cccc(-c3ccc(CNCCO)cc3)c2)cccc1-c1nnc(Nc2cccc(CNCCO)c2)o1
IC50 [1]: 42 nM

Cc1c(-c2nnc(Nc3ccc(CN4CC[C@@H](O)C4)cc3)o2)cccc1-c1cccc(-c2nnc(Nc3cccc(CN4CC[C@@H](O)C4)c3)o2)c1C
IC50 [1]: 1180 nM

Cc1c(-c2ccc(CNCCO)cc2)cccc1-c1cccc(-c2nnc(Nc3cccc(CNCCO)c3)o2)c1C
IC50 [1]: 37.2 nM

Cc1c(-c2nnc(Nc3cccc(CNCC(=O)O)c3)o2)cccc1-c1cccc(-c2nnc(Nc3cccc(CNCC(=O)O)c3)o2)c1C
IC50 [1]: 68.8 nM

COc1nc(O[C@H]2CCc3c(-c4cccc(C(=O)Nc5ccc(CNCCN(C)C)cn5)c4Cl)cccc32)c(Cl)cc1CNCCN(C)C
IC50 [1]: 4.2 nM

Cc1c(C(=O)Nc2ccc(CNCCO)cc2)cccc1-c1cccc(-c2nnc(Nc3cccc(CNCCO)c3)o2)c1C
IC50 [1]: 127 nM

COc1nc(O[C@H]2CCc3c(-c4cccc(C(=O)Nc5ccc(CN6CCC7(CC6)CNC(=O)C7)cn5)c4Cl)cccc32)c(Cl)cc1CN1CCC2(CC1)CNC(=O)C2
IC50 [1]: 17.2 nM

CC(=O)NCCNCc1ccc(Nc2nnc(-c3cccc(-c4cccc(-c5nnc(Nc6cccc(CNCCNC(C)=O)c6)o5)c4C)c3C)o2)cc1
IC50 [1]: 893 nM

Cc1c(-c2nnc(Nc3ccc(CNCCO)cc3)o2)cccc1-c1cccc(-c2nnc(Nc3cccc(CNCCO)c3)o2)c1C
IC50 [1]: 714 nM

Cc1c(-c2cccc(-c3nnc(Nc4cccc(CNCCO)c4)o3)c2)cccc1-c1nnc(Nc2cccc(CN3CC[C@@H](O)C3)c2)o1
IC50 [1]: 51.6 nM

COc1nc(O[C@H]2CCc3c(-c4cccc(C(=O)Nc5ccc(CNCCNC(C)=O)c(F)n5)c4Cl)cccc32)c(Cl)cc1CNCCNC(C)=O
IC50 [1]: 15.6 nM

COc1nc(O[C@H]2CCc3c(-c4cccc(C(=O)Nc5ccc(CNCCO)cn5)c4Cl)cccc32)c(Cl)cc1CNCCO
IC50 [1]: 4.3 nM

COc1nc(NC(=O)c2cccc(-c3cccc4c3CC[C@@H]4Oc3nc(OC)c(CNCCNC(C)=O)cc3Cl)c2Cl)ccc1CNCCNC(C)=O
IC50 [1]: 22.1 nM

CC(=O)NCCNCc1ccc(NC(=O)c2cccc(-c3cccc(-c4nnc(Nc5cccc(CNCCO)c5)o4)c3C)c2C)nc1
IC50 [1]: 42 nM

Cc1c(-c2ccccc2)cccc1-c1nnc(Nc2cccc(CNCCO)c2)o1
IC50 [1]: 27.8 nM

Cc1c(-c2nnc(Nc3cccc(CNCCO)c3)o2)cccc1-c1cccc(-c2nnc(Nc3cccc(CNCCO)c3)o2)c1C
IC50 [1]: 78.4 nM

COc1nc(O[C@H]2CCc3c(-c4cccc(C(=O)Nc5ccc(CNCCO)c(C(F)(F)F)n5)c4Cl)cccc32)c(Cl)cc1CNCCO
IC50 [1]: 16.7 nM

COc1nc(O[C@H]2CCc3c(-c4cccc(C(=O)Nc5ccc(CNCCO)c(F)n5)c4Cl)cccc32)c(Cl)cc1CNCCO
IC50 [1]: 16.1 nM

CC(=O)NCCNCc1cccc(Nc2nnc(-c3cccc(-c4cccc(-c5nnc(Nc6cccc(CNCCNC(C)=O)c6)o5)c4C)c3C)o2)c1
IC50 [1]: 58.8 nM

Cc1c(Nc2nccc3cc(CN4CC[C@@H](O)C4)cnc23)cccc1-c1cccc(-c2nc3cc(CN4CC[C@@H](C(=O)O)C4)cc(C#N)c3o2)c1C
Activity [31]: Active | Activity [32]: Active | inhibition [33]: inactive
